Here are results for eleven compounds from PubChem BioAssay AID280 (DTP/NCI, 2004).

The subject of this experiment is nude mice, LOX melanoma ip, survival T/C. Put plainly: NCI In Vivo Anticancer Drug Screen. Data for tumor model Human Amelanotic Melanoma (LOX) (intraperitoneal) in NU/NU BALB/C (nude) mice. Conditions: endpoint: median survival time, schedule: Q04DX003 (ip), higher = longer survival. On the procedure: The antitumor activity of compounds was measured in mice bearing transplantable tumors. Survival or tumor size were measured and the results are expressed as the measurement made in the treated group (T) divided by the measurement made in the vehicle treated control group (C). The tumor model used in this assay is Human Amelanotic Melanoma (LOX) (intraperitoneal) in NU/NU BALB/C (nude) mice

The mark [1] stands for this setting: dose: 150.0 mg/kg/injection, vehicle: saline with Tween-80.

The structures appear in SMILES notation. “And” between values parts separate entries of the source, which are not always exact repeats. Equal values may be shown once. Inconclusive results and toxic doses are left out.

As to `O=C1c2c(O)ccc(O)c2C(=O)c2c(NCCNCCO)ccc(NCCNCCO)c21`, the T/C runs as follows: (dose: 0.45 mg/kg/injection, vehicle: other) 168 % of control and 167 % of control; (dose: 0.75 mg/kg/injection, vehicle: other) 375 % of control and 187 % of control; (dose: 1.25 mg/kg/injection, vehicle: other) 256 % of control and 265 % of control; (dose: 1.25 mg/kg/injection, vehicle: water) 218 % of control; (dose: 2.0 mg/kg/injection, vehicle: other) 187 % of control; (dose: 2.08 mg/kg/injection, vehicle: other) 88 % of control. For the same compound, the T/C (dose: 2.5 mg/kg/injection, vehicle: water) is 120 % of control.
`COc1cc2c[n+](C)c3c(c2cc1OC)Cc1cc2c(cc1-3)OCO2`: the T/C by setting is: (dose: 18.75 mg/kg/injection, vehicle: saline with Tween-80) 108 % of control; under setting [1], 201 % of control.
For `CC1=NN(c2cccc(S(=O)(=O)O)c2)C(=O)C1N=Nc1cc(Cl)cc(S(=O)(=O)O)c1O.CC1=NN(c2cccc(S(=O)(=O)O)c2)C(=O)C1N=Nc1cc(Cl)cc(S(=O)(=O)O)c1O.[Cr]` (stereo not drawn), the T/C is, setting by setting: (dose: 75.0 mg/kg/injection, vehicle: suspension in saline) 97 % of control; (dose: 150.0 mg/kg/injection, vehicle: suspension in saline) 94 % of control; (dose: 300.0 mg/kg/injection, vehicle: suspension in saline) 87 % of control.
Regarding `CCC1(O)C(=O)OCc2c1cc1n(c2=O)Cc2cc3cc(N)ccc3nc2-1` (stereo not drawn), the T/C runs as follows: (dose: 3.75 mg/kg/injection, vehicle: suspension in saline) 324 % of control; (dose: 4.0 mg/kg/injection, vehicle: saline) 189 % of control; (dose: 7.0 mg/kg/injection, vehicle: saline) 355 % of control; (dose: 7.5 mg/kg/injection, vehicle: suspension in saline) 324 % of control; (dose: 12.0 mg/kg/injection, vehicle: saline) 355 % of control; (dose: 15.0 mg/kg/injection, vehicle: suspension in saline) 324 % of control. Further, the T/C was 355 % of control (dose: 20.0 mg/kg/injection, vehicle: saline) and 355 % of control (dose: 33.0 mg/kg/injection, vehicle: saline).
`CN(C)[C@@H]1C(=O)C(C(=O)NCN2CCN(C(=N)N=C(N)N)CC2)=C(O)[C@@]2(O)C(=O)C3=C(O)c4c(O)cccc4[C@@](C)(O)[C@H]3C[C@@H]12`: the T/C by setting is: (dose: 1.25 mg/kg/injection, vehicle: suspension in saline) 114 % of control; (dose: 2.5 mg/kg/injection, vehicle: suspension in saline) 107 % of control; (dose: 3.6 mg/kg/injection, vehicle: suspension in saline) 112 % of control; (dose: 5.0 mg/kg/injection, vehicle: suspension in saline) 114 % of control; (dose: 6.0 mg/kg/injection, vehicle: suspension in saline) 105 % of control; (dose: 10.0 mg/kg/injection, vehicle: suspension in saline) 103 % of control and 100 % of control. The T/C was 112 % of control (dose: 17.0 mg/kg/injection, vehicle: suspension in saline) and 89 % of control (dose: 28.0 mg/kg/injection, vehicle: suspension in saline).
Regarding `CN=C(NC)c1ccc(NC(=O)/C=C\c2ccc(/C=C/C(=O)Nc3ccc(C(=NC)NC)cc3)cc2)cc1`, the T/C reads like this: (dose: 0.78 mg/kg/injection, vehicle: Klucel (hydroxypropylcellulose) (HPC)) 104 % of control; (dose: 1.56 mg/kg/injection, vehicle: Klucel (hydroxypropylcellulose) (HPC)) 109 % of control; (dose: 2.0 mg/kg/injection, vehicle: Klucel (hydroxypropylcellulose) (HPC)) 90 % of control; (dose: 2.25 mg/kg/injection, vehicle: Klucel (hydroxypropylcellulose) (HPC)) 101 % of control; (dose: 3.75 mg/kg/injection, vehicle: Klucel (hydroxypropylcellulose) (HPC)) 87 % of control; (dose: 4.0 mg/kg/injection, vehicle: Klucel (hydroxypropylcellulose) (HPC)) 105 % of control. Also, the T/C runs as follows: (dose: 6.0 mg/kg/injection, vehicle: Klucel (hydroxypropylcellulose) (HPC)) 111 % of control; (dose: 10.0 mg/kg/injection, vehicle: Klucel (hydroxypropylcellulose) (HPC)) 105 % of control; (dose: 11.0 mg/kg/injection, vehicle: Klucel (hydroxypropylcellulose) (HPC)) 98 % of control; (dose: 12.5 mg/kg/injection, vehicle: Klucel (hydroxypropylcellulose) (HPC)) 109 % of control; (dose: 17.0 mg/kg/injection, vehicle: Klucel (hydroxypropylcellulose) (HPC)) 90 % of control; (dose: 18.0 mg/kg/injection, vehicle: Klucel (hydroxypropylcellulose) (HPC)) 95 % of control.
On to `COc1ccc2oc3c(ccc[n+]3C)c(=O)c2c1`, for which the T/C runs as follows: (dose: 50.0 mg/kg/injection, vehicle: saline with Tween-80) 108 % of control; (dose: 100.0 mg/kg/injection, vehicle: saline with Tween-80) 107 % of control; (dose: 200.0 mg/kg/injection, vehicle: saline with Tween-80) 102 % of control; (dose: 400.0 mg/kg/injection, vehicle: saline with Tween-80) 101 % of control.
Turning to `COC1=C(OC)C(=O)C(N(C)C)=C(CO)C1=O`, the T/C is 116 % of control (dose: 25.0 mg/kg/injection, vehicle: saline); 103 % of control (dose: 50.0 mg/kg/injection, vehicle: saline); 104 % of control (dose: 100.0 mg/kg/injection, vehicle: saline); 117 % of control (dose: 200.0 mg/kg/injection, vehicle: saline).
With `CC(=O)C[n+]1ccccc1Sc1ccc(Cl)cc1`, the T/C (dose: 1.5 mg/kg/injection, vehicle: saline with Tween-80) is 95 % of control; the T/C (dose: 3.0 mg/kg/injection, vehicle: saline with Tween-80) was 94 % of control; the T/C (dose: 6.0 mg/kg/injection, vehicle: saline with Tween-80) was 99 % of control; the T/C (dose: 12.0 mg/kg/injection, vehicle: saline with Tween-80) was 96 % of control; the T/C (dose: 24.0 mg/kg/injection, vehicle: saline with Tween-80) was 95 % of control.
For `COc1cc(C(=O)N/N=C/c2cccc([N+](=O)[O-])c2)cc(OC)c1OC`, the T/C was 98 % of control (dose: 37.5 mg/kg/injection, vehicle: saline with Tween-80); 101 % of control and 96 % of control (dose: 75.0 mg/kg/injection, vehicle: saline with Tween-80); 104 % of control and 105 % of control under setting [1]; 98 % of control (dose: 300.0 mg/kg/injection, vehicle: saline with Tween-80); 105 % of control and 98 % of control (dose: 600.0 mg/kg/injection, vehicle: saline with Tween-80); 114 % of control (dose: 1200.0 mg/kg/injection, vehicle: saline with Tween-80).
Regarding `CC(C)(C)NC(C1=CC(C)(C)c2ccccc2C1=O)c1ccccc1` (stereo not drawn), the T/C was 107 % of control (dose: 25.0 mg/kg/injection, vehicle: Klucel (hydroxypropylcellulose) (HPC)); 113 % of control (dose: 50.0 mg/kg/injection, vehicle: Klucel (hydroxypropylcellulose) (HPC)); 110 % of control (dose: 100.0 mg/kg/injection, vehicle: Klucel (hydroxypropylcellulose) (HPC)); 118 % of control (dose: 200.0 mg/kg/injection, vehicle: Klucel (hydroxypropylcellulose) (HPC)).
